Assays:
Format in all cases: cell-based
[1] = target: GPR55 mutant G152W (Gα13) (Homo sapiens, UniProt Q9Y2T6, G152W); assay: BRET² G protein dissociation assay, GPR55 G152W with Gα13
Text: (§1) To validate the functionality of the GPR55 cryo-EM construct, we conducted bioluminescence resonance energy transfer 2 (BRET²)-based G protein dissociation assays[46],[47] using an engineered heterotrimeric G13 protein. The N-terminal GFP fusion of the receptor was additionally modified with a G67A mutation to disrupt fluorescence properties. We employed human embryonic kidney (HEK) cells overexpressing wt or mutant GPR55 together with Gβ3, Gγ9-GFP, and Gα13 tagged with Renilla luciferase 8 (Rluc8).
(§2) G protein dissociation assays were performed according to the original protocols of the TRUPATH BRET² assay[47],[87] but with subtle modifications as previously described[61],[88],[89]. All reagents and cells were obtained from Thermo Fisher Scientific unless indicated otherwise. The coding sequences for the G protein biosensors[47] (Gα12-Rluc8, Gα13-Rluc8, wt Gβ3, and Gγ9-GFP), the wt GPR55, the construct used for cryo-EM (with GFP bearing a G67A mutation to disrupt fluorescence properties[48] for BRET² assays), GPR55 binding pocket mutants (G152^4.56F, G152^4.56W, N171^ECL2Q, N171^ECL2A, T176^5.33A, R253^6.62A), and the wt TBXA2R were codon-optimized for Homo sapiens, gene-synthesized, and sub-cloned into pcDNA^TM3.1(+) between NheI and HindIII restriction sites by GeneArt (Thermo Fisher Scientific). […] Freshly grown cells were washed with Dulbecco’s Balanced Salt Solution (DPBS, cat. #14200075) and detached using trypsin-ethylenediaminetetraacetic acid (trypsin-EDTA) (cat. #25300-062). Then, the cells were reconstituted to 500,000 cells per mL with fresh medium, and 1,000,000 cells were seeded into each well of a 6-well plate. After 3 h incubation at 37 °C and 5% CO2, adherent cells were transfected with 600 ng DNA (1:1:1:1 ratio of plasmid DNA for GPR55, wt Gβ3, Gγ9-GFP, and Gα12-Rluc8 or Gα13-Rluc8). Plasmid DNA was mixed with 1.5 µL Lipofectamine^TM 2000 (cat. #11668027) in Opti-MEM^TM medium (cat. #31985062) and incubated for 20 min. Then, the mixture was added to each well of the 6-well plate following 24 h incubation at 37 °C and 5% CO2. Transfected cells were washed with DPBS, detached using EDTA (Versene, cat. #15040066), and reconstituted into fresh medium at 500,000 cells mL^−1. From this suspension, 50,000 cells were seeded into each well of a white-bottom 96-well plate (Nunc^TM MicroWell^TM 96 wells, cat. #136101) following overnight incubation at 37 °C and 5% CO2. Then, the adherent cells were washed with assay medium [Hank’s balanced salt solution (HBSS, cat. #14065056) plus 20 mM HEPES pH 7.4 (cat. #15630056)] and finally reconstituted into 50 µL of the same medium. […] Methoxy e-Coelenterazine was used as luciferase substrate (Prolume Purple, NanoLight Technology, cat. #369), reconstituted at 1 mM in methanol and diluted to 37.5 µM with assay buffer (7.5 µM final assay concentration). The assay was started by the addition of 20 µL luciferase substrate to each well of the assay plate using a Multidrop^TM Combi reagent dispenser (Thermo Fisher Scientific), followed by 5 min incubation at room temperature. Then, 30 µL of agonist dilutions or DMSO control was added (final DMSO concentration 1.5%), followed by an additional 5 min incubation at room temperature. BRET² measurements were performed with a PHERAstar® FSX microplate reader (BMG LABTECH) using a BRET² filter (donor emission 370–450 nm, acceptor emission 500–530 nm) at the maximum fluorescence gain of 3600. BRET² ratios were calculated by dividing GFP emission signals from Rluc8 emission counts. Buffer-DMSO controls were subtracted from each data point to calculate ΔBRET² ratios.

[2] = target: GPR55 mutant N171Q (Gα13) (Homo sapiens, UniProt Q9Y2T6, N171Q); assay: BRET² G protein dissociation assay, GPR55 N171Q with Gα13
Text: as §1, §2

[3] = target: GPR55 cryo-EM construct (Gα13) (Homo sapiens, UniProt Q9Y2T6); assay: BRET² G protein dissociation assay, GPR55 cryo-EM construct (GFP G67A) with Gα13; conditions: Cryo-EM-G67A-G13
Text: as §1, §2

wt GPR55 (Gα13) = wt GPR55 (Gα13) (Homo sapiens, UniProt Q9Y2T6); assay: BRET² G protein dissociation assay, wt GPR55 with Gα13; conditions: wt GPR55, Gα13
Text: as §1, §2

[4] = target: GPR55 mutant G152F (Gα13) (Homo sapiens, UniProt Q9Y2T6, G152F); assay: BRET² G protein dissociation assay, GPR55 G152F with Gα13
Text: as §1, §2

CCCCC[C@H](O)/C=C/[C@@H]1[C@@H](C/C=C\CCCC(=O)O)[C@H]2CO[C@@H]1C2 [U-46619]
Mean (plotted) BRET² response, GPR55-G152W-G13 ([1]; Concentration 10 pM): 0.00225
Mean (plotted) BRET² response, GPR55-G152W-G13 ([1]; Concentration 30 pM): -0.00435
Mean (plotted) BRET² response, GPR55-G152W-G13 ([1]; Concentration 100 pM): -0.00495
Mean (plotted) BRET² response, GPR55-G152W-G13 ([1]; Concentration 300 pM): -0.0004516
Mean (plotted) BRET² response, GPR55-G152W-G13 ([1]; Concentration 1e-9 M): -0.001887
Mean (plotted) BRET² response, GPR55-G152W-G13 ([1]; Concentration 3e-9 M): 7.154e-5
Mean (plotted) BRET² response, GPR55-G152W-G13 ([1]; Concentration 1e-8 M): -0.01413
Mean (plotted) BRET² response, GPR55-G152W-G13 ([1]; Concentration 3e-8 M): -6.439e-5
Mean (plotted) BRET² response, GPR55-G152W-G13 ([1]; Concentration 1e-7 M): 0.001032
Mean (plotted) BRET² response, GPR55-G152W-G13 ([1]; Concentration 3e-7 M): 0.002926
Mean (plotted) BRET² response, GPR55-G152W-G13 ([1]; Concentration 1e-6 M): -0.00228
Mean (plotted) BRET² response, GPR55-G152W-G13 ([1]; Concentration 3e-6 M): -0.002139
Mean (plotted) BRET² response, GPR55-G152W-G13 ([1]; Concentration 1e-5 M): -0.008827
Mean (plotted) BRET² response, GPR55-G152W-G13 ([1]; Concentration 3e-5 M): -0.0048
Mean (plotted) BRET² response, GPR55-N171Q-G13 ([2]; Concentration 10 pM): 0.0013
Mean (plotted) BRET² response, GPR55-N171Q-G13 ([2]; Concentration 30 pM): 0.00095
Mean (plotted) BRET² response, GPR55-N171Q-G13 ([2]; Concentration 100 pM): 0.00685
Mean (plotted) BRET² response, GPR55-N171Q-G13 ([2]; Concentration 300 pM): -0.0003198
Mean (plotted) BRET² response, GPR55-N171Q-G13 ([2]; Concentration 1e-9 M): 0.003698
Mean (plotted) BRET² response, GPR55-N171Q-G13 ([2]; Concentration 3e-9 M): 0.002984
Mean (plotted) BRET² response, GPR55-N171Q-G13 ([2]; Concentration 1e-8 M): -0.00933
Mean (plotted) BRET² response, GPR55-N171Q-G13 ([2]; Concentration 3e-8 M): 0.006599
Mean (plotted) BRET² response, GPR55-N171Q-G13 ([2]; Concentration 1e-7 M): 0.005054
Mean (plotted) BRET² response, GPR55-N171Q-G13 ([2]; Concentration 3e-7 M): 0.005811
Mean (plotted) BRET² response, GPR55-N171Q-G13 ([2]; Concentration 1e-6 M): 0.005259
Mean (plotted) BRET² response, GPR55-N171Q-G13 ([2]; Concentration 3e-6 M): -0.001778
Mean (plotted) BRET² response, GPR55-N171Q-G13 ([2]; Concentration 1e-5 M): 0.001984
Mean (plotted) BRET² response, GPR55-N171Q-G13 ([2]; Concentration 3e-5 M): -0.005542
BRET2 response, Mean (plotted, Fig. S4) ([3]; concentration 10 pM): 0.00025
BRET2 response, Mean (plotted, Fig. S4) ([3]; concentration 30 pM): -0.003725
BRET2 response, Mean (plotted, Fig. S4) ([3]; concentration 100 pM): -0.000225
BRET2 response, Mean (plotted, Fig. S4) ([3]; concentration 300 pM): 0.0002
BRET2 response, Mean (plotted, Fig. S4) ([3]; concentration 1e-9 M): -7.5e-5
BRET2 response, Mean (plotted, Fig. S4) ([3]; concentration 3e-9 M): 0.0017
BRET2 response, Mean (plotted, Fig. S4) ([3]; concentration 1e-8 M): -0.0133
BRET2 response, Mean (plotted, Fig. S4) ([3]; concentration 3e-8 M): 0.000825
BRET2 response, Mean (plotted, Fig. S4) ([3]; concentration 1e-7 M): 0.0026
BRET2 response, Mean (plotted, Fig. S4) ([3]; concentration 3e-7 M): 0.003275
BRET2 response, Mean (plotted, Fig. S4) ([3]; concentration 1e-6 M): 0.00345
G protein activation at GPR55-transfected cells (in words) (wt GPR55 (Gα13)): inactive
Mean (plotted) BRET² response, GPR55-G152F-G13 ([4]; Concentration 10 pM): -0.003
Mean (plotted) BRET² response, GPR55-G152F-G13 ([4]; Concentration 30 pM): 0.00205
Mean (plotted) BRET² response, GPR55-G152F-G13 ([4]; Concentration 100 pM): 0.0008
Mean (plotted) BRET² response, GPR55-G152F-G13 ([4]; Concentration 300 pM): -0.003135
Mean (plotted) BRET² response, GPR55-G152F-G13 ([4]; Concentration 1e-9 M): 0.0004643
Mean (plotted) BRET² response, GPR55-G152F-G13 ([4]; Concentration 3e-9 M): -0.004129
Mean (plotted) BRET² response, GPR55-G152F-G13 ([4]; Concentration 1e-8 M): -0.009075
Mean (plotted) BRET² response, GPR55-G152F-G13 ([4]; Concentration 3e-8 M): -0.001052
Mean (plotted) BRET² response, GPR55-G152F-G13 ([4]; Concentration 1e-7 M): -0.0003089
Mean (plotted) BRET² response, GPR55-G152F-G13 ([4]; Concentration 3e-7 M): -0.001149
Mean (plotted) BRET² response, GPR55-G152F-G13 ([4]; Concentration 1e-6 M): -0.0006267
Mean (plotted) BRET² response, GPR55-G152F-G13 ([4]; Concentration 3e-6 M): -0.009104
Mean (plotted) BRET² response, GPR55-G152F-G13 ([4]; Concentration 1e-5 M): -0.008346
Mean (plotted) BRET² response, GPR55-G152F-G13 ([4]; Concentration 3e-5 M): -0.007499
